Results as given in the NIST ThermoML archive (doi:10.1021/acs.jced.5b00894).
± gives the expanded uncertainty stated by the source.

Settings: 88 kPa, Liquid, Vibrating tube method

mass density (298.15 K) [kg/m3] | mass density (313.15 K) [kg/m3] | mass density (333.15 K) [kg/m3] | Structure (SMILES)
1202.71 ± 4.2 | 1192.29 ± 4.2 | 1178.73 ± 4.2 | CCCCn1cc[n+](C)c1.F[B-](F)(F)F [1-butyl-3-methylimidazolium tetrafluoroborate]
1063.86 ± 4.1 | 1054.55 ± 4.1 | 1042.42 ± 4.1 | CCCCCCCCn1cc[n+](C)c1.O=[N+]([O-])[O-] [1-methyl-3-octylimidazolium nitrate]

Structure (SMILES) | mass density (298.15 K) [kg/m3] | mass density (313.15 K) [kg/m3] | mass density (333.15 K) [kg/m3]
CCCCCCn1cc[n+](C)c1.N#C[S-] [1-hexyl-3-methylimidazolium thiocyanate] | 1036.21 ± 4.1 | 1027.55 ± 4.1 | 1016.12 ± 4.1
